Results reported in US20120052126A1, “Nanoemulsions Containing Antioxidants And Other Health-Promoting Compounds” (priority 2010, published 2012).

Test system: MDA production (lipid peroxidation) in brain tissue
Assay: Malonaldehyde (MDA) production in mouse brain after oral administration and sleep fragmentation
Format: in vivo, mice
Settings: gavage once a day for 120 days, then 15 days sleep fragmentation, brain cortex, MDA expressed as fold increase
Excerpt: Male adult mice were obtained having either the human APOE ε4 allele (targeted replacement, n=42) or wild type allele (n=42). […] Administration was by gavage once a day for 120 days. After this period, the subject mice underwent sleep fragmentation (SF) for 15 days. The SF device exposes freely behaving mice in a standard laboratory cage to intermittent tactile stimulation utilizing a motorized mechanical device. Tactile stimulation is produced by a horizontal bar powered by an electrical motor system, which sweeps just above the cage floor from side to side at intermittent functioning mode (2 min). During the […] motion, mice may need to step over the […] passes. Chronic SF may induce inflammatory responses and oxidative stress. After 15 days of SF, the mice were sacrificed and the brain dissected out for MDA and 8-OHdG assays, which are produced by the brain in response to oxidative stress and inflammatory events. MDA production is an indicator of lipid peroxidation. After the mice were sacrificed, an LPO-586 kit (OxisResearch, Portland Oreg.) was used according to the manufacturer's instructions to measure MDA levels in the brain tissue. The animals were anesthetized with CO2 inhalation then decapitated, and the cortex were dissected, snap frozen in liquid nitrogen, and stored at -80° C. until assay the following day. Neuronal tissues were homogenized in 20 mM phosphate buffer (pH 7.4) containing 0.5 mM butylated hydroxytoluene to prevent sample oxidation. […] The samples were then centrifuged and clear supernatants measured at 586 nm. MDA production was then calculated per the standard curve according to the manufacturer's instructions. The relative levels of lipid peroxidation were expressed in fold increase in MDA production.

| Compound | MDA production, Diff of Means (MDA-APOE ε4 allele mice (human APOE ε4 targeted replacement)) | MDA production, Diff of Means (MDA-Wild Type mice) |
| --- | --- | --- |
| O=C(O)CCCCC1CCSS1 (stereo not drawn) [lipoic acid (SW), lipoic acid] | 0.663 | 0.46 |
| Cc1c(C)c2c(c(C)c1O)CC[C@@](C)(CCC[C@H](C)CCC[C@H](C)CCCC(C)C)O2 [vitamin E (SW), vitamin E] |  | 0.489 |
